In assay [1] the target is TabsPBP2. The assay can be described thus: Competitive fluorescence binding assay with 1-NPN probe. The note with it: competitive displacement of 1-NPN (2 µM), 2 μM TabsPBP2, pH 7.4; for Ki: calculated from IC50. On the set-up: species or system Tuta absoluta. The protocol: Fluorescence binding assays were performed on a Cary Eclipse Fluorescence Spectrophotometer (Agilent Technologies, Palo Alto, CA, USA) to quantify TabsPBP2’s binding affinity for sex pheromones and tomato volatiles. Using n-phenyl-1-naphthylamine (1-NPN) as a fluorescent probe (1 mM in methanol), 2 μM TabsPBP2 (in 50 mM Tris-HCl, pH 7.4) were titrated with 1-NPN (2–16 µM). Fluorescence was excited at 337 nm with emission scanned from 350 and 500 nm. Ligand binding affinities were measured via competitive assays with 1-NPN (2 µM). Titration ranges: 0.5–4 μM (sex pheromones) and 2–50 μM (tomato volatiles). The binding constant (K1-NPN) for 1-NPN was calculated, followed by calculation of the dissociation constant (Ki) from IC50 values using the equation: Ki = [IC50]/(1 + [1-NPN]/K1-NPN), where [1-NPN] represents the free concentration of 1-NPN.

The test system of assay [2] is adult T. absoluta. Further details: method as in doi:10.1127/entomologia/2024/2399. The note with it: cited from earlier work.
Assay [3] concerns T. absoluta females. On the set-up: method as in PMID 29404818. The note with it: cited from earlier work.

For `C=CC(=C)CCC=C(C)C` [myrcene, Myrcene], in assay [1], the IC50 came out at 6.22 ± 0.85 µM and the inhibition constant Ki is 4.68 ± 0.66 µM. In addition, the “behavioral effect on adult T. absoluta” value in assay [2] is on record as “repel”. The “EAG responses in females” value in assay [3] was “elicit EAG responses”.

Consider `C=C1CCC2(C(C)C)CC12` (stereo not shown) [sabinene, Sabinene], for which, in assay [1], the IC50 was 13.6 ± 1.85 µM and the inhibition constant (Ki) was 11.4 ± 1.88 µM.

Regarding `COC(=O)c1ccccc1O` [methyl salicylate, Methyl salicylate], in assay [1], the half-inhibitory concentration (IC50) worked out at 18.6 ± 1.38 µM and the inhibition constant (Ki) is 13 ± 1.23 µM. Also, the “behavioral effect on adult T. absoluta” value in assay [2] is recorded as “repel”. The “EAG responses in females” value in assay [3] is reported as “elicit EAG responses”.

As to `CC/C=C\CCO` [cis-3-hexen-l-ol, cis-3-Hexen-l-ol], in assay [1], the IC50 was determined as 19.5 ± 2.39 µM and the Ki was 13.7 ± 1.9 µM. Moreover, the “EAG responses in females” value in assay [3] was “elicit EAG responses”.

`CC1=CC2C(CC1)C2(C)C` (stereo not shown) [2-carene, 2-Carene]: in assay [1], the IC50 amounted to 7.47 ± 1.2 µM and the Ki was 5.5 ± 0.92 µM.

Regarding `CC1=CC=C(C(C)C)CC1` [α-terpinene, α-Terpinene], in assay [1], the concentration for half-maximal inhibition (IC50) worked out at 14.6 ± 5.16 µM and the Ki was 10.2 ± 3.6 µM.

As to `CC1=CCC2CC1C2(C)C` (stereo not drawn) [α-pinene, α-Pinene], in assay [1], the IC50 was 9.98 ± 0.98 µM and the Ki is 7.48 ± 0.57 µM.

The values above are taken from PMC12384096, “TabsPBP2, a Pheromone-Binding Protein Highly Expressed in Male Antennae of Tuta absoluta, Binds Sex Pheromones and Tomato Volatiles” (Biomolecules, 2025).
